Common to all, as to assay type: in vivo
The test system of data set [1] is Yellow Fever Mosquito (Aedes aegypti, "YFM"). Briefly: Bioassay on yellow fever mosquito larvae, 96-well plate assay. Conditions: 4000 ppm DMSO master solution diluted with 90:10 water:acetone; about 1 day-old larvae; room temperature; scored after 3 days. The method, then: Bioassays On Yellow Fever Mosquito (Aedes aegypti, “YFM”)
Certain molecules disclosed in this document were tested against YFM using procedures described in the following paragraph. In the reporting of the results, the “YFM Rating Table” was used (See Table Section).
Master plates containing 400 μg of a molecule dissolved in 100 μL of dimethyl sulfoxide (DMSO) (equivalent to a 4000 ppm solution) are used. A master plate of assembled molecules contains 15 μL per well. To this plate, 135 μL of a 90:10 water:acetone mixture is added to each well. A robot (Biomek® NXP Laboratory Automation Workstation) is programmed to dispense 15 μL aspirations from the master plate into an empty 96-well shallow plate (“daughter” plate). There are 6 reps (“daughter” plates) created per master. The created daughter plates are then immediately infested with YFM larvae.
The day before plates are to be treated, mosquito eggs are placed in Millipore water containing liver powder to begin hatching (4 g. into 400 mL). After the daughter plates are created using the robot, they are infested with 220 μL of the liver powder/larval mosquito mixture (about 1 day-old larvae). After plates are infested with mosquito larvae, a non-evaporative lid is used to cover the plate to reduce drying. Plates are held at room temperature for 3 days prior to grading. After 3 days, each well is observed and scored based on mortality.

Data set [2] deals with Cabbage Looper (Trichoplusia ni, "CL"). The experiment in a line: Bioassay on cabbage looper, 128-well diet tray assay. Conditions: 168 h, 50 μg/cm^2 of test compound on artificial diet, second instar larvae, 25° C., five to seven days, average of eight wells, read-out: CL % Control (or Mortality) rating. How it is done: (§1) Bioassays on Beet Armyworm (Spodoptera exigua, “BAW”) and Cabbage Looper (Trichoplusia ni, “CL”)
(§2) Certain molecules disclosed in this document were tested against BAW and CL using procedures described in the following examples. In the reporting of the results, the “BAW & CL Rating Table” was used (See Table Section).
Bioassays on CL were conducted using a 128-well diet tray assay. one to five second instar CL larvae were placed in each well (3 mL) of the diet tray that had been previously filled with 1 mL of artificial diet to which 50 μg/cm^2 of the test compound (dissolved in 50 μL of 90:10 acetone-water mixture) had been applied (to each of eight wells) and then allowed to dry. Trays were covered with a clear self-adhesive cover and held at 25° C., 14:10 light-dark cycle for five to seven days. Percent mortality was recorded for the larvae in each well; activity in the eight wells was then averaged. The results are indicated in the table entitled “Table ABC: Biological Results” (See Table Section).

The test system of data set [3] is Beet Armyworm (Spodoptera exigua, "BAW"). Briefly: Bioassay on beet armyworm, 128-well diet tray assay. To be noted: 168 h, 50 μg/cm^2 of test compound on artificial diet, second instar larvae, 25° C., five to seven days, average of eight wells, read-out: BAW % Control (or Mortality) rating. The method, then:
as §1, §2
Bioassays on BAW were conducted using a 128-well diet tray assay. one to five second instar BAW larvae were placed in each well (3 mL) of the diet tray that had been previously filled with 1 mL of artificial diet to which 50 μg/cm^2 of the test compound (dissolved in 50 μL of 90:10 acetone-water mixture) had been applied (to each of eight wells) and then allowed to dry. Trays were covered with a clear self-adhesive cover and held at 25° C., 14:10 light-dark cycle for five to seven days. Percent mortality was recorded for the larvae in each well; activity in the eight wells was then averaged. The results are indicated in the table entitled “Table ABC: Biological Results” (See Table Section).

Broadly, the mortality is the share of the test organisms that died.

In the case of `Cc1cc(-c2ncn(-c3ccc(OC(F)(F)C(F)(F)F)cc3)n2)ccc1NC(=O)/N=C1\SCC(=O)N1c1cccc2occc12` [F22, (Z)-1-(3-(Benzofuran-4-yl)-4-oxothiazolidin-2-ylidene)-3-(2-methyl-4-(1-(4-(perfluoroethoxy)phenyl)-1H-1,2,4-triazol-3-yl)phenyl)urea], the “YFM % Control (or Mortality) rating” value in data set [1] is reported as “A (80-100)”. For the same compound, the mortality at 50 µg/cm2 in data set [2] and in data set [3] was 50 to 100% in each case.

As to `O=C(/N=C1\SCC(=O)N1c1cccc2c1COC2=O)Nc1ccc(-c2ncn(-c3ccc(OC(F)(F)F)cc3)n2)cc1F` [F19, (Z)-1-(2-Fluoro-4-(1-(4-(trifluoromethoxy)phenyl)-1H-1,2,4-triazol-3-yl)phenyl)-3-(4-oxo-3-(1-oxo-1,3-dihydroisobenzofuran-4-yl)thiazolidin-2-ylidene)urea], the “YFM % Control (or Mortality) rating” value in data set [1] is “D (No activity noticed in this bioassay)”. In addition, the values for the mortality at 50 µg/cm2 in data set [2] and in data set [3] were 0% and 50 to 100%, respectively.

As for `Cc1cc(-c2ncn(-c3ccc(OC(F)(F)C(F)(F)F)cc3)n2)ccc1NC(=O)/N=C1\SCC(=O)N1c1cccc2ccoc12` [F23, (Z)-1-(3-(Benzofuran-7-yl)-4-oxothiazolidin-2-ylidene)-3-(2-methyl-4-(1-(4-(perfluoroethoxy)phenyl)-1H-1,2,4-triazol-3-yl)phenyl)urea], the “YFM % Control (or Mortality) rating” value in data set [1] was “A (80-100)”. The mortality at 50 µg/cm2 in data set [2] and in data set [3] was 50 to 100% throughout.

As to `O=C(/N=C1\SCC(=O)N1c1cccc2ccoc12)Nc1ccc(-c2ncn(-c3ccc(C(F)(F)C(F)(F)F)cc3)n2)cc1F` [F21, (Z)-1-(3-(Benzofuran-7-yl)-4-oxothiazolidin-2-ylidene)-3-(2-fluoro-4-(1-(4-(perfluoroethyl)phenyl)-1H-1,2,4-triazol-3-yl)phenyl)urea], in data set [1], the “YFM % Control (or Mortality) rating” value was “A (80-100)”. For the same compound, the mortality at 50 µg/cm2 in data set [2] and in data set [3] was 50 to 100% throughout.

In the case of `O=C(/N=C1\SCC(=O)N1c1cccc2occc12)Nc1ccc(-c2ncn(-c3ccc(C(F)(F)C(F)(F)F)cc3)n2)cc1F` [F20, (Z)-1-(3-(Benzofuran-4-yl)-4-oxothiazolidin-2-ylidene)-3-(2-fluoro-4-(1-(4-(perfluoroethyl)phenyl)-1H-1,2,4-triazol-3-yl)phenyl)urea], the “YFM % Control (or Mortality) rating” value in data set [1] was “D (No activity noticed in this bioassay)”. Further, the mortality at 50 µg/cm2 in data set [2] and in data set [3] was 50 to 100% throughout.

Consider `Cc1cc(-c2ncn(-c3ccc(OC(F)(F)C(F)(F)F)cc3)n2)ccc1NC(=O)/N=C1\SCC(=O)N1c1cccc2ncccc12` [F32, (Z)-1-(2-Methyl-4-(1-(4-(perfluoroethoxy)phenyl)-1H-1,2,4-triazol-3-yl)phenyl)-3-(4-oxo-3-(quinolin-5-yl)thiazolidin-2-ylidene)urea], for which the “YFM % Control (or Mortality) rating” value in data set [1] is recorded as “A (80-100)”. Further, the mortality at 50 µg/cm2 in data set [2] and in data set [3] was 50 to 100% in each case.

`Cc1cc(-c2ncn(-c3ccc(OC(F)(F)C(F)(F)F)cc3)n2)ccc1NC(=O)/N=C1\SCC(=O)N1c1cccc2c1ccn2C` [F27, (Z)-1-(3-(1-Methyl-1H-indol-4-yl)-4-oxothiazolidin-2-ylidene)-3-(2-methyl-4-(1-(4-(perfluoroethoxy)phenyl)-1H-1,2,4-triazol-3-yl)phenyl)urea]: in data set [1], the “YFM % Control (or Mortality) rating” value is reported as “A (80-100)”. Further, the mortality at 50 µg/cm2 in data set [2] and in data set [3] was 50 to 100% in each case.

Turning to `O=C(/N=C1\SCC(=O)N1c1cccc2ccccc12)Nc1ccc(-c2ncn(-c3ccc(OC(F)(F)F)cc3)n2)cc1F` [F16, (Z)-1-(2-Fluoro-4-(1-(4-(trifluoromethoxy)phenyl)-1H-1,2,4-triazol-3-yl)phenyl)-3-(3-(naphthalen-1-yl)-4-oxothiazolidin-2-ylidene)urea], in data set [1], the “YFM % Control (or Mortality) rating” value was “A (80-100)”. Also, the mortality at 50 µg/cm2 in data set [2] and in data set [3] was 50 to 100% each time.

`O=C(/N=C1\SCC(=O)N1c1cccc2ncccc12)Nc1ccc(-c2ncn(-c3ccc(C(F)(F)F)cc3)n2)cc1F` [F33, (Z)-1-(2-Fluoro-4-(1-(4-(trifluoromethyl)phenyl)-1H-1,2,4-triazol-3-yl)phenyl)-3-(4-oxo-3-(quinolin-5-yl)thiazolidin-2-ylidene)urea]: the “YFM % Control (or Mortality) rating” value in data set [1] was “A (80-100)”. For the same compound, the mortality at 50 µg/cm2 in data set [2] and in data set [3] was 50 to 100% each time.

`O=C(/N=C1\SCC(=O)N1c1cccc2c1CCOC2)Nc1ccc(-c2ncn(-c3ccc(OC(F)(F)F)cc3)n2)cc1F` [F18, (Z)-1-(2-Fluoro-4-(1-(4-(trifluoromethoxy)phenyl)-1H-1,2,4-triazol-3-yl)phenyl)-3-(3-(isochroman-5-yl)-4-oxothiazolidin-2-ylidene)urea]: the “YFM % Control (or Mortality) rating” value in data set [1] was “A (80-100)”. The mortality at 50 µg/cm2 in data set [2] and in data set [3] was 50 to 100% throughout.

`O=C(/N=C1\SCC(=O)N1c1ccc2ccccc2c1)Nc1ccc(-c2ncn(-c3ccc(OC(F)(F)F)cc3)n2)cc1F` [F13, (Z)-1-(2-Fluoro-4-(1-(4-(trifluoromethoxy)phenyl)-1H-1,2,4-triazol-3-yl)phenyl)-3-(3-(naphthalen-2-yl)-4-oxothiazolidin-2-ylidene)urea]: the “YFM % Control (or Mortality) rating” value in data set [1] is given as “D (No activity noticed in this bioassay)”. For the same compound, the mortality at 50 µg/cm2 in data set [2] and in data set [3] was 50 to 100% each time.

For `Cc1cc(-c2ncn(-c3ccc(OC(F)(F)C(F)(F)F)cc3)n2)ccc1NC(=O)/N=C1\SCC(=O)N1c1ccc2ccccc2c1` [F29, (Z)-1-(2-Methyl-4-(1-(4-(perfluoroethoxy)phenyl)-1H-1,2,4-triazol-3-yl)phenyl)-3-(3-(naphthalen-2-yl)-4-oxothiazolidin-2-ylidene)urea], the “YFM % Control (or Mortality) rating” value in data set [1] is “D (No activity noticed in this bioassay)”. For the same compound, the mortality at 50 µg/cm2 in data set [2] and in data set [3] was 50 to 100% throughout.

Consider `Cn1ccc2c(N3C(=O)CS/C3=N\C(=O)Nc3ccc(-c4ncn(-c5ccc(OC(F)(F)F)cc5)n4)cc3F)cccc21` [F15, (Z)-1-(2-Fluoro-4-(1-(4-(trifluoromethoxy)phenyl)-1H-1,2,4-triazol-3-yl)phenyl)-3-(3-(1-methyl-1H-indol-4-yl)-4-oxothiazolidin-2-ylidene)urea], for which the “YFM % Control (or Mortality) rating” value in data set [1] is “A (80-100)”. The mortality at 50 µg/cm2 in data set [2] and in data set [3] was 50 to 100% throughout.

For the compound `Cn1ccc2ccc(N3C(=O)CS/C3=N\C(=O)Nc3ccc(-c4ncn(-c5ccc(OC(F)(F)F)cc5)n4)cc3F)cc21` [F14, (Z)-1-(2-Fluoro-4-(1-(4-(trifluoromethoxy)phenyl)-1H-1,2,4-triazol-3-yl)phenyl)-3-(3-(1-methyl-1H-indol-6-yl)-4-oxothiazolidin-2-ylidene)urea], the “YFM % Control (or Mortality) rating” value in data set [1] was “A (80-100)”. Moreover, the mortality at 50 µg/cm2 in data set [2] and in data set [3] was 50 to 100% each time.

For `CN1CCOc2c1cccc2N1C(=O)CS/C1=N\C(=O)Nc1ccc(-c2ncn(-c3ccc(OC(F)(F)F)cc3)n2)cc1F` [F12, (Z)-1-(2-Fluoro-4-(1-(4-(trifluoromethoxy)phenyl)-1H-1,2,4-triazol-3-yl)phenyl)-3-(3-(4-methyl-3,4-dihydro-2H-benzo[b][1,4]oxazin-8-yl)-4-oxothiazolidin-2-ylidene)urea], the “YFM % Control (or Mortality) rating” value in data set [1] was “A (80-100)”. Also, the mortality at 50 µg/cm2 in data set [2] and in data set [3] was 50 to 100% in each case.

For the origin of these results see US20240057606A1, “MOLECULES HAVING CERTAIN PESTICIDAL UTILITIES, AND INTERMEDIATES, COMPOSITIONS, AND PROCESSES RELATED THERETO” (priority 2020, published 2024).
